Reference: ChEMBL document CHEMBL1138634, “Topological modeling of lipophilicity, diuretic activity, and carbonic inhibition activity of benzene sulfonamides: a molecular connectivity approach” (Bioorg Med Chem Lett, 2004)

Columns and labels:
[1] = Diuretic activity was determined; assay type: ADME, Urine
[2] = Inhibitory activity against carbonic anhydrase

SMILES | Log 1/C [1] | Log Ki [2]
Cc1cccc(S(N)(=O)=O)c1 | 0.17 | -5.3
CNc1ccc(S(N)(=O)=O)cc1 | -0.03 | -4.87
NS(=O)(=O)c1cccc(Cl)c1 | 0.29 | -5.63
NS(=O)(=O)c1ccc(Br)cc1 | 0.26 | -5.92
Cc1ccccc1S(N)(=O)=O | -0.3 | -4.79
NS(=O)(=O)c1ccc(Cl)c(Cl)c1 | 0.24 | -6.39
COc1ccc(S(N)(=O)=O)cc1 | – | -5.34
NS(=O)(=O)c1ccc(Cl)c([N+](=O)[O-])c1 | 0.32 | -6.76
NS(=O)(=O)c1cccc([N+](=O)[O-])c1 | 0.67 | -5.88
NS(=O)(=O)c1ccccc1 [BENZENESULFONAMIDE] | 0.13 | -5.21
NS(=O)(=O)c1ccc(Cl)cc1 [P-CHLOROBENZENESULFONAMIDE] | – | -5.72
NS(=O)(=O)c1ccccc1[N+](=O)[O-] | -0.3 | -5.07
NS(=O)(=O)c1ccccc1Cl | -0.3 | -5.52
Nc1ccc(S(N)(=O)=O)cc1 [SULFANILAMIDE] | -0.3 | –
N#Cc1ccc(S(N)(=O)=O)cc1 | 1 | -5.95
NS(=O)(=O)c1ccc([N+](=O)[O-])c(C(F)(F)F)c1 | 0.57 | -6.85
CC(=O)c1ccc(S(N)(=O)=O)cc1 | 0.39 | -5.95
Cc1ccc(S(N)(=O)=O)cc1 [P-TOLUENESULFONAMIDE] | 0.18 | -5.42
